Literature values as cited in patent publication US10058543B2, “Treatment of familial exudative vitreoretinopathy through S1PR2 inhibition” (DALHOUSIE UNIVERSITY, priority 2014, dated 2018).
Entries after “also recorded” stand apart in the source; their conditions may differ.

Assays:
VEGF = details: ocular injection, FEVR patient, one study
S1PR2 = S1PR2 (Homo sapiens, UniProt O95136)
Chain of S1PR2 (O95136 whole entry): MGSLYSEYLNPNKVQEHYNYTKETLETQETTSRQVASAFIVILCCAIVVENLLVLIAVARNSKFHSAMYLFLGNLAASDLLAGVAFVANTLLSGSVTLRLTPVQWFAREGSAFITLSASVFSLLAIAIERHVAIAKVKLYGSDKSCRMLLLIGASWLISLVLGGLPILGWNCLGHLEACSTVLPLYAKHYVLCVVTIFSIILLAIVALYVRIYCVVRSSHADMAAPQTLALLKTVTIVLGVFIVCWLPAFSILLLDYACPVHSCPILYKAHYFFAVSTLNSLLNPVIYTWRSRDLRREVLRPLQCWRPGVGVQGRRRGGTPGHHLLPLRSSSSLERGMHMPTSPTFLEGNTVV

Chain of VEGF (P15692 207-311 limits assumed): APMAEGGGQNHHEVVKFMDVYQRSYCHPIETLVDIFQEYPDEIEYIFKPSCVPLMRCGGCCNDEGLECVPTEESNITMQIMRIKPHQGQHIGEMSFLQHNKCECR

bevacizumab: monoclonal antibody that inhibits VEGF function originally developed to treat cancers
retinal hemorrhage and neovascularization (VEGF): improvement of retinal hemorrhage and neovascularization

Cc1nn(C)c2nc(NNC(=O)Nc3cc(Cl)nc(Cl)c3)cc(C(C)C)c12 [JTE-103, 1-(2,6-dichloro-4-pyridyl)-3-[(4-isopropyl-1,3-dimethyl-pyrazolo[3,4-n]pyridin-6-yl)amino]urea]
specificity for S1PR2 versus other S1PRs (S1PR2): 10 fold | affinity (S1PR2; S1PR2, stated in words): uM affinity; also recorded: low affinity | specificity for S1PR2 (S1PR2; stated in words): some specificity for S1PR2
